Measurements reported in PubChem BioAssay (NCI).
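Assay format: 96-well plates, 48-hour exposure. Definition used: TGI = concentration required for complete inhibition of growth.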

Key:
Test in all cases: NCI-60 cell line screen, 48 h
CAKI-1 renal = tested on: CAKI-1 renal
DU-145 prostate = tested on: DU-145 prostate
EKVX NSCLC = tested on: EKVX NSCLC
HOP-92 NSCLC = tested on: HOP-92 NSCLC
HT29 colon = tested on: HT29 colon
IGROV1 ovarian = tested on: IGROV1 ovarian
LOX IMVI melanoma = tested on: LOX IMVI melanoma
MALME-3M melanoma = tested on: MALME-3M melanoma
MDA-MB-435 = tested on: MDA-MB-435
MOLT-4 leukemia = tested on: MOLT-4 leukemia
NCI-H226 lung = tested on: NCI-H226 lung
NCI/ADR-RES ovarian = tested on: NCI/ADR-RES ovarian
SK-MEL-28 melanoma = tested on: SK-MEL-28 melanoma

Compound	TGI (CAKI-1 renal) [µM]	TGI (DU-145 prostate) [µM]	TGI (EKVX NSCLC) [µM]	TGI (HOP-92 NSCLC) [µM]	TGI (HT29 colon) [µM]	TGI (IGROV1 ovarian) [µM]	TGI (LOX IMVI melanoma) [µM]	TGI (MALME-3M melanoma) [µM]	TGI (MDA-MB-435) [µM]	TGI (MOLT-4 leukemia) [µM]	TGI (NCI-H226 lung) [µM]	TGI (NCI/ADR-RES ovarian) [µM]	TGI (SK-MEL-28 melanoma) [µM]
CC(=O)c1sc2c(c1OC(=O)c1ccccc1)c(=O)n(-c1ccccc1)c(=S)n2-c1ccccc1	> 26.4	79	69.1	5.94	12.9	54.5	5.26	5.92	28.9	8.3	8.33	28.7	30.4
O=C(O)CCC1(CCC(=O)O)CCCCCCCCC(CCC(=O)O)(CCC(=O)O)C(=O)C1=O	> 100	> 100	> 100	> 100	> 100	–	> 100	> 100	> 100	–	> 100	> 100	> 100
Cc1cc(N(CCC#N)CCC#N)ccc1/C=C(\N=[N+]=[N-])C(=O)NC(=O)COc1ccccc1	> 100	–	> 100	> 100	> 100	> 100	> 100	> 100	–	> 100	> 100	–	> 100
O=S1(=O)OCCOS(=O)(=O)C1(Br)Br	> 100	–	> 100	> 100	> 100	–	–	> 100	–	> 100	94.1	–	> 100
CCOC(=O)C(C(=O)OCC)S(C)(=O)=O	–	–	> 100	> 100	> 100	> 100	> 100	> 100	–	> 100	> 100	–	> 100
O=C(O)C1Cc2[nH]c3ccccc3c2C2CCCC12 (configuration not stated)	> 100	–	> 100	> 100	–	> 100	> 100	> 100	–	> 100	> 100	–	> 100
O=C(O)c1ccc(Nc2nc3ccc(C(F)(F)F)cc3nc2-c2ccccc2)cc1	> 100	> 10	> 100	–	> 10	> 100	> 100	> 100	> 100	> 100	> 100	96.2	> 100
N#CCCN(c1ccc(C=Nc2ccc(C(=O)O)cc2)cc1)S(=O)(=O)c1ccccc1	> 100	–	> 100	> 100	> 100	> 100	> 100	> 100	–	> 100	> 100	–	> 100
